Results on eight compounds are retold here after publication PMC8153904 (ACS Omega, 2021).

pEC50: −log10 of the molar value. “Also recorded” adds a separate entry of the source.

The nature of one data set: Cytotoxicity assay. Type of data set: cell-based, hamster. As to conditions: hamster, BHK-21 cells, CC50, BHK-21 cells, 24 h, MTT.
For another data set, the system named is CHIKV-NanoLuc. Nature of the data set: Antiviral activity assay, CHIKV-NanoLuc at low MOI in BHK-21 cells. It is filed as cell-based, Chikungunya virus. The settings on record: for pEC50: Chikungunya virus, BHK-21, 16 h; for viral infection at 100 μM / concentration at which the inhibitory effect appeared: mixtures of four stereoisomers; for concentration at which the inhibitory effect appeared: tested at 1 up to 100 μM.

In a further data set the test system is BHK-21 cells. Nature of the data set: Cytotoxicity assay. Type of data set: cell-based, hamster. The settings on record: for cytotoxic effect over the tested concentrations: concentrations of 1 up to 100 μM, mixtures of four stereoisomers.

In general, CC50 refers to the concentration at which the toxic effect on the cells reaches its halfway point. High values mean better tolerance by the cells, low ones harm at low concentration. On to `COc1ccc(CNC(=O)C(NC(=O)[C@@H]2C[C@H]2c2cc(C)cc(F)c2)c2ccc(C)c(C(F)(F)F)c2)c(OC)c1` (stereo partly drawn) [D166], for which the CC50 at 24 h in “Cytotoxicity assay” is > 100 µM. Moreover, the “antiviral (anti-CHIKV) activity, in words” value in the data set with CHIKV-NanoLuc (BHK-21 cells, CHIKV-NanoLuc, low MOI) is “complete loss of the activity”.

As to `Cc1cc(C)cc([C@@H]2C[C@H]2C(=O)NC(C(N)=O)c2ccc(C)c(C)c2)c1` (stereo partly drawn) [D27], the CC50 at 24 h in “Cytotoxicity assay” is < 0.1 µM. Besides, in the data set on BHK-21 cells, the “concentration at which cytotoxicity appeared” value was 0.1 µM and the “cytotoxic effect over the tested concentrations” value is “toxic at all concentrations”.

A word on the pEC50: it is −log10 of the EC50, conventionally taken in molar units. Low readings indicate a large EC50, high ones a small EC50. As for `Cc1cc(F)cc([C@@H]2C[C@H]2C(=O)NC(C(N)=O)c2ccc(C)c(C(F)(F)F)c2)c1` (stereo partly drawn) [D127], the CC50 at 24 h in “Cytotoxicity assay” is > 100 µM. For the same compound, the “concentration at which cytotoxicity appeared” value in the data set with BHK-21 cells is recorded as “more than 100 μM”. Besides, the pEC50 in the data set with CHIKV-NanoLuc is 4.53.

For the compound `Cc1cc(C)cc([C@@H]2C[C@H]2C(=O)NC(C(=O)NCc2ccccc2)c2ccc(C)c(C)c2)c1` (stereo partly drawn) [D160], the CC50 at 24 h in the data set “Cytotoxicity assay” was > 100 µM. The “cytotoxic effect over the tested concentrations” value in the data set with BHK-21 cells is reported as “no cytotoxic effect”. Moreover, in the data set with CHIKV-NanoLuc (BHK-21 cells), the “viral infection at 100 μM” value is on record as “almost completely inhibited” and the “concentration at which the inhibitory effect appeared” value was 10 µM. The same compound gave a pEC50 in the data set on CHIKV-NanoLuc of 4.98.

With `Cc1cc(C)cc([C@@H]2C[C@H]2C(=O)NC(C(N)=O)c2ccc(C)c(C(F)(F)F)c2)c1` (stereo partly drawn) [D119], in “Cytotoxicity assay”, the CC50 at 24 h was > 100 µM. Moreover, in the data set with CHIKV-NanoLuc, the pEC50 was 4.49.

In the case of `Cc1cc(C)cc([C@@H]2C[C@H]2C(=O)NC(C(=O)NC2CC2)c2ccc(C)c(C)c2)c1` (stereo partly drawn) [D163], the “concentration at which cytotoxicity appeared” value in the data set on BHK-21 cells was “more than 10 μM”. Moreover, the “antiviral activity at the maximum nontoxic concentration” value in the data set with CHIKV-NanoLuc (BHK-21 cells, CHIKV-NanoLuc) was “no antiviral activity”.

Consider `Cc1cc(C)cc([C@@H]2C[C@H]2C(=O)NC(C(=O)NC2CCCC2)c2ccc(C)c(C)c2)c1` (stereo partly drawn) [D164], for which the CC50 at 24 h in “Cytotoxicity assay” is > 100 µM. In the data set on CHIKV-NanoLuc, this compound had a pEC50 of 4.30.

Take `Cc1cc(C)cc([C@@H]2C[C@H]2C(=O)NC(C(=O)NC(C)(C)C)c2ccc(C)c(C)c2)c1` (stereo partly drawn) [D161]: in the data set “Cytotoxicity assay”, the CC50 at 24 h is > 100 µM. Further, the “cytotoxicity effect at 100 μM” value in the data set on BHK-21 cells (100 μM, mixture of four stereoisomers) is reported as “moderate cytotoxicity effect; also recorded: moderate cytotoxic effect”. Also, in the data set with CHIKV-NanoLuc (BHK-21 cells), the “viral infection at 100 μM” value is “almost completely inhibited” and the “concentration at which the inhibitory effect appeared” value amounted to 10 µM. The pEC50 in the data set with CHIKV-NanoLuc is 4.86.
